# pIC50: −log10 of the molar value.
# Assays:
# JAK1 = JAK1 (Homo sapiens (Human), UniProt P23458); assay: Jak Biochemical HTRF Assay, JAK1; conditions: HTRF biochemical assay, GST-tagged catalytic domain; top concentration tested […]; read-out: JAK1 IC50
# Text: (§1) Jak Biochemical HTRF Assay Protocol
# (§2) Subsequent reagent additions employed an Agilent Bravo.
# JAK2 = JAK2 (Homo sapiens (Human), UniProt O60674); assay: Jak Biochemical HTRF Assay, JAK2; conditions: HTRF biochemical assay, GST-tagged catalytic domain; top concentration tested […]
# Text: as §1, §2
# Chain of JAK1 (P23458 875-1153): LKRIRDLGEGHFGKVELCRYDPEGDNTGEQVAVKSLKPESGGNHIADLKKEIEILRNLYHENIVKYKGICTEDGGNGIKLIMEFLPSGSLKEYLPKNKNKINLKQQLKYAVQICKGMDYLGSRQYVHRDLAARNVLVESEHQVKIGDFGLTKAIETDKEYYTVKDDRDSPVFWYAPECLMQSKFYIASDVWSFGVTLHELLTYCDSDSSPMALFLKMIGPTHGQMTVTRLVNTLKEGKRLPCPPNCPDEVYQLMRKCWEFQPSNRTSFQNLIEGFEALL
# Chain of JAK2 (O60674 849-1124): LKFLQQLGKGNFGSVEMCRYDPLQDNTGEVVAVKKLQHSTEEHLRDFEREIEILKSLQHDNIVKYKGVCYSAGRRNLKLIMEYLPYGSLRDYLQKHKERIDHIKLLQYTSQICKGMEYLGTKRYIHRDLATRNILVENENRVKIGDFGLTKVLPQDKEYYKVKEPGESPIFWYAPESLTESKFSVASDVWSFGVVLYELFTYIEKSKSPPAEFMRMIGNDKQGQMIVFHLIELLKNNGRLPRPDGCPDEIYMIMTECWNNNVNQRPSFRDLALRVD
pIC50 (JAK1),pIC50 (JAK2),SMILES
7.52,6.35,"CCn1ccnc1CN1CCC(CC#N)(n2cc(C(N)=O)c(Nc3ccnc(F)c3)n2)CC1 [Example 22-1, 1-(4-(Cyanomethyl)-1-((1-ethyl-1H-imidazol-2-yl)methyl)piperidin-4-yl)-3-((2-fluoropyridin-4-yl)amino)-1H-pyrazole-4-carboxamide]"
9.70,8.30,"N#CCC1(n2cc(C(N)=O)c(Nc3ccnc(F)c3)n2)CCN(Cc2cccnc2)CC1 [Example 22-2, 1-[4-(cyanomethyl)-1-(pyridin-3-ylmethyl)piperidin-4-yl]-3-[(2-fluoropyridin-4-yl)amino]-1H-pyrazole-4-carboxamide]"
9.00,7.24,"N#CCC1(n2cc(C(N)=O)c(Nc3ccnc(F)c3)n2)CCN(CC2CCCCC2)CC1 [Example 22-3, 1-[4-(cyanomethyl)-1-(cyclohexylmethyl)piperidin-4-yl]-3-[(2-fluoropyridin-4-yl)amino]-1H-pyrazole-4-carboxamide]"
7.13,5.93,"Cc1c[nH]c(CN2CCC(CC#N)(n3cc(C(N)=O)c(Nc4ccnc(F)c4)n3)CC2)n1 [Example 22-4, 1-{4-(cyanomethyl)-1-[(4-methyl-1H-imidazol-2-yl)methyl]piperidin-4-yl}-3-[(2-fluoropyridin-4-yl)amino]-1H-pyrazole-4-carboxamide]"
8.22,7.15,"N#CCC1(n2cc(C(N)=O)c(Nc3ccnc(F)c3)n2)CCN(Cc2cn[nH]c2)CC1 [Example 22-5, 1-[4-(cyanomethyl)-1-(1H-pyrazol-4-ylmethyl)piperidin-4-yl]-3-[(2-fluoropyridin-4-yl)amino]-1H-pyrazole-4-carboxamide]"
8.22,6.68,"N#CCC1(n2cc(C(N)=O)c(Nc3ccc(F)cc3)n2)CCN(CC2CCCCC2)CC1 [Example 22-6, 1-[4-(cyanomethyl)-1-(cyclohexylmethyl)piperidin-4-yl]-3-[(4-fluorophenyl)amino]-1H-pyrazole-4-carboxamide]"
9.52,7.89,"N#CCC1(n2cc(C(N)=O)c(Nc3ccc(F)cc3)n2)CCN(Cc2ccccc2)CC1 [Example 22-7, 1-[1-benzyl-4-(cyanomethyl)piperidin-4-yl]-3-[(4-fluorophenyl)amino]-1H-pyrazole-4-carboxamide]"
10.00,8.22,"N#CCC1(n2cc(C(N)=O)c(Nc3ccnc(F)c3)n2)CCN(Cc2ccccc2)CC1 [Example 22-8, 1-[1-benzyl-4-(cyanomethyl)piperidin-4-yl]-3-[(2-fluoropyridin-4-yl)amino]-1H-pyrazole-4-carboxamide]"
10.22,8.70,"N#CCC1(n2cc(C(N)=O)c(Nc3ccnc(F)c3)n2)CCN(Cc2ccccc2F)CC1 [Example 22-9, 1-[4-(cyanomethyl)-1-(2-fluorobenzyl)piperidin-4-yl]-3-[(2-fluoropyridin-4-yl)amino]-1H-pyrazole-4-carboxamide]"
10.15,8.52,"N#CCC1(n2cc(C(N)=O)c(Nc3ccnc(F)c3)n2)CCN(Cc2cccc(F)c2)CC1 [Example 22-10, 1-[4-(cyanomethyl)-1-(3-fluorobenzyl)piperidin-4-yl]-3-[(2-fluoropyridin-4-yl)amino]-1H-pyrazole-4-carboxamide]"
10.00,8.40,"N#CCC1(n2cc(C(N)=O)c(Nc3ccnc(F)c3)n2)CCN(Cc2ccc(F)cc2)CC1 [Example 22-11, 1-[4-(cyanomethyl)-1-(4-fluorobenzyl)piperidin-4-yl]-3-[(2-fluoropyridin-4-yl)amino]-1H-pyrazole-4-carboxamide]"
6.91,< 5.83,"N#CCC1(n2cc(C(N)=O)c(Nc3ccnc(F)c3)n2)CCN(Cc2cn3ccccc3n2)CC1 [Example 22-12, 1-[4-(cyanomethyl)-1-(imidazo[1,2-a]pyridin-2-ylmethyl)piperidin-4-yl]-3-[(2-fluoropyridin-4-yl)amino]-1H-pyrazole-4-carboxamide]"
8.52,7.41,"N#CCC1(n2cc(C(N)=O)c(Nc3ccnc(F)c3)n2)CCN(Cc2ccn[nH]2)CC1 [Example 22-13, 1-[4-(cyanomethyl)-1-(1H-pyrazol-5-ylmethyl)piperidin-4-yl]-3-[(2-fluoropyridin-4-yl)amino]-1H-pyrazole-4-carboxamide]"
9.22,7.55,"N#CCC1(n2cc(C(N)=O)c(Nc3ccnc(F)c3)n2)CCN(Cc2cnccn2)CC1 [Example 22-14, 1-[4-(cyanomethyl)-1-(pyrazin-2-ylmethyl)piperidin-4-yl]-3-[(2-fluoropyridin-4-yl)amino]-1H-pyrazole-4-carboxamide]"
9.00,7.74,"Cc1ncc(CN2CCC(CC#N)(n3cc(C(N)=O)c(Nc4ccnc(F)c4)n3)CC2)s1 [Example 22-15, 1-{4-(cyanomethyl)-1-[(2-methyl-1,3-thiazol-5-yl)methyl]piperidin-4-yl}-3-[(2-fluoropyridin-4-yl)amino]-1H-pyrazole-4-carboxamide]"
8.30,6.91,"CC1(C)CC(CN2CCC(CC#N)(n3cc(C(N)=O)c(Nc4ccnc(F)c4)n3)CC2)CCO1 (centres unmarked) [Example 22-16, 1-{4-(cyanomethyl)-1-[(2,2-dimethyltetrahydro-2H-pyran-4-yl)methyl]piperidin-4-yl}-3-[(2-fluoropyridin-4-yl)amino]-1H-pyrazole-4-carboxamide]"
7.77,6.30,N#CCC1(n2cc(C(N)=O)c(Nc3ccnc(F)c3)n2)CCN(Cc2cnn3ccccc23)CC1 [Example 22-17]
8.70,7.14,"N#CCC1(n2cc(C(N)=O)c(Nc3ccnc(F)c3)n2)CCN(Cc2ccnc3[nH]ccc23)CC1 [Example 22-18, 1-[4-(cyanomethyl)-1-(1H-pyrrolo[2,3-b]pyridin-4-ylmethyl)piperidin-4-yl]-3-[(2-fluoropyridin-4-yl)amino]-1H-pyrazole-4-carboxamide]"
9.15,7.60,"N#CCC1(n2cc(C(N)=O)c(Nc3ccnc(F)c3)n2)CCN(Cc2ccco2)CC1 [Example 22-19, 1-[4-(cyanomethyl)-1-(furan-2-ylmethyl)piperidin-4-yl]-3-[(2-fluoropyridin-4-yl)amino]-1H-pyrazole-4-carboxamide]"
8.70,7.51,"N#CCC1(n2cc(C(N)=O)c(Nc3ccnc(F)c3)n2)CCN(Cc2ccc3[nH]ccc3c2)CC1 [Example 22-20, 1-[4-(cyanomethyl)-1-(1H-indol-5-ylmethyl)piperidin-4-yl]-3-[(2-fluoropyridin-4-yl)amino]-1H-pyrazole-4-carboxamide]"

# Second part, the molecule before the results:
SMILES,pIC50 (JAK1),pIC50 (JAK2)
"N#CCC1(n2cc(C(N)=O)c(Nc3ccccc3)n2)CCN(Cc2cccc(F)c2)CC1 [Example 21-18, 1-[4-(cyanomethyl)-1-(3-fluorobenzyl)piperidin-4-yl]-3-(phenylamino)-1H-pyrazole-4-carboxamide]",8.70,7.14
"N#CCC1(n2cc(C(N)=O)c(Nc3ccccc3)n2)CCN(Cc2ccc(C(F)(F)F)cc2)CC1 [Example 21-19, 1-{4-(cyanomethyl)-1-[4-(trifluoromethyl)benzyl]piperidin-4-yl}-3-(phenylamino)-1H-pyrazole-4-carboxamide]",7.46,6.34
"N#CCC1(n2cc(C(N)=O)c(Nc3ccccc3)n2)CCN(Cc2ccc(Cl)cc2F)CC1 [Example 21-21, 1-[1-(4-chloro-2-fluorobenzyl)-4-(cyanomethyl)piperidin-4-yl]-3-(phenylamino)-1H-pyrazole-4-carboxamide]",8.52,7.36
"CCCc1ccc(CN2CCC(CC#N)(n3cc(C(N)=O)c(Nc4ccccc4)n3)CC2)cc1 [Example 21-22, 1-[4-(cyanomethyl)-1-(4-propylbenzyl)piperidin-4-yl]-3-(phenylamino)-1H-pyrazole-4-carboxamide]",7.14,6.05
"N#CCC1(n2cc(C(N)=O)c(Nc3ccccc3)n2)CCN(Cc2c(F)cccc2F)CC1 [Example 21-23, 1-[4-(cyanomethyl)-1-(2,6-difluorobenzyl)piperidin-4-yl]-3-(phenylamino)-1H-pyrazole-4-carboxamide]",9.10,7.89
"CC(C)c1ccc(CN2CCC(CC#N)(n3cc(C(N)=O)c(Nc4ccccc4)n3)CC2)cc1 [Example 21-24, 1-{4-(cyanomethyl)-1-[4-(1-methylethyl)benzyl]piperidin-4-yl}-3-(phenylamino)-1H-pyrazole-4-carboxamide]",6.92,5.98
"N#CCC1(n2cc(C(N)=O)c(Nc3ccccc3)n2)CCN(CC#Cc2ccccc2)CC1 [Example 21-25, 1-[4-(cyanomethyl)-1-(3-phenylprop-2-yn-1-yl)piperidin-4-yl]-3-(phenylamino)-1H-pyrazole-4-carboxamide]",7.08,6.13
"N#CCC1(n2cc(C(N)=O)c(Nc3ccccc3)n2)CCN(Cc2c(F)ccc(F)c2F)CC1 [Example 21-26, 1-[4-(cyanomethyl)-1-(2,3,6-trifluorobenzyl)piperidin-4-yl]-3-(phenylamino)-1H-pyrazole-4-carboxamide]",9.15,7.96
"CC(C)Oc1ccc(CN2CCC(CC#N)(n3cc(C(N)=O)c(Nc4ccccc4)n3)CC2)cc1 [Example 21-27, 1-{4-(cyanomethyl)-1-[4-(1-methylethoxy)benzyl]piperidin-4-yl}-3-(phenylamino)-1H-pyrazole-4-carboxamide]",7.44,6.09
"Cc1ccc(CN2CCC(CC#N)(n3cc(C(N)=O)c(Nc4ccccc4)n3)CC2)cc1C [Example 21-28, 1-[4-(cyanomethyl)-1-(3,4-dimethylbenzyl)piperidin-4-yl]-3-(phenylamino)-1H-pyrazole-4-carboxamide]",7.41,6.34
"COC(=O)c1ccccc1CN1CCC(CC#N)(n2cc(C(N)=O)c(Nc3ccccc3)n2)CC1 [Example 21-29, methyl 2-({4-[4-carbamoyl-3-(phenylamino)-1H-pyrazol-1-yl]-4-(cyanomethyl)piperidin-1-yl}methyl)benzoate]",7.68,6.40
